molecular target: T1, KRas G12C (Homo sapiens, UniProt P01116, C118S/C51S/C80L/G12C); assay: KRas G12C Modification Assay (LCMS detection of covalent adduct); assay type: binding; conditions: 5 μM concentration for 3 hours; LC/MS of intact protein; higher POC = higher degree of modification
T1 construct: GDP-loaded K-Ras (1-169) G12C, C51S, C80L, C118S
Procedure: A 10 μL aliquot of each protein solution was then transferred to a 384 well microtiter plate. Initial compound stocks were generated at fifty times their desired final assay concentration in DMSO.
Exemplary compounds of Formula (II) were diluted 25-fold into K-Ras Assay Buffer to a final of two times their final concentration. A 10 μL aliquot of each diluted compound solution was then added to each of the protein solutions in the microtiter plate to initiate reaction. […] At each time point, the reactions were quenched with 20 μL of a 25 mM acetic acid solution. […] Once all reactions were quenched, the plates were heat sealed and the samples were injected into a LC/MS system for data acquisition.
Samples were injected in their liquid phase onto a C-3 reverse phase column to remove assay buffer and prepare the samples for mass spectrometer. The proteins were eluted from the column using an acetonitrile gradient and fed directly into the mass analyzer. Initial raw data analysis took place in Agilent MassHunter software immediately post data acquisition.
Raw data analysis of the intact protein was exclusively a deconvolution of the multiple charge states of each protein in solution using a maximum entropy deconvolution provided in Mass Hunter. To minimize complexity, only the data over limited mass ranges were considered for analysis, with a minimum of one Dalton mass step intervals. The heights of all masses identified during raw data analysis were exported to be further analyzed in Spotfire® data analysis software.
Final data analysis was a multistep process in the Spotfire® data analysis software package. Briefly, each protein mass was calculated as a percent of the total signal of that sample, that percentage was then normalized to the percentage of signal of the protein in the absence of reactive compounds. Those normalized signals were reported as normalized percent of control (POC). […] Key: “A”≤25% POC; “B”>25% POC−≤50% POC; “C”>50% POC and ND=not determined.

Row | Compound | POC (normalized percent of control; degree of covalent modification of KRas G12C)
1 | C=C(OC)C(=O)N1CCN(c2nc(OC[C@@H]3CCCN3C)nc3c2CCN(c2cccc4cccc(Cl)c24)C3)C[C@@H]1CC#N [Example 43, 2-[(2S)-4-[7-(8-chloro-1-naphthyl)-2-[[(2S)-1-methylpyrrolidin-2-yl]methoxy]-6,8-dihydro-5H-pyrido[3,4-d]pyrimidin-4-yl]-1-(2-methoxyprop-2-enoyl)piperazin-2-yl]acetonitrile] | A (“A”≤25% POC)
2 | CN1CCC[C@H]1COc1nc2c(c(N3CCN(C(=O)C#CCO)[C@@H](CC#N)C3)n1)CCN(c1cccc3ccccc13)C2 [Example 3, 2-((S)-1-(4-hydroxybut-2-ynoyl)-4-(2-(((S)-1-methylpyrrolidin-2-yl)methoxy)-7-(naphthalen-1-yl)-5,6,7,8-tetrahydropyrido[3,4-d]pyrimidin-4-yl)piperazin-2-yl)acetonitrile] | C (“C”>50% POC)
3 | Cc1cccc2cccc(N3CCc4c(nc(OC[C@@H]5CCCN5C)nc4N4CCN(C(=O)/C=C/C(N)=O)[C@@H](CC#N)C4)C3)c12 [Example 29, (E)-4-((S)-2-(cyanomethyl)-4-(7-(8-methylnaphthalen-1-yl)-2-(((S)-1-methylpyrrolidin-2-yl)methoxy)-5,6,7,8-tetrahydropyrido[3,4-d]pyrimidin-4-yl)piperazin-1-yl)-4-oxobut-2-enamide] | C (“C”>50% POC)
4 | COC/C=C/C(=O)N1CCN(c2nc(OC[C@@H]3CCCN3C)nc3c2CCN(c2cccc4cccc(Cl)c24)C3)C[C@@H]1CC#N [Example 53, 2-((S)-4-(7-(8-chloronaphthalen-1-yl)-2-(((S)-1-methylpyrrolidin-2-yl)methoxy)-5,6,7,8-tetrahydropyrido[3,4-d]pyrimidin-4-yl)-1-((E)-4-methoxybut-2-enoyl)piperazin-2-yl)acetonitrile] | C (“C”>50% POC)
5 | Cc1cccc2cccc(N3CCc4c(nc(OC[C@@H]5CCCN5C)nc4N4CCN(C(=O)C#CCO)[C@@H](CC#N)C4)C3)c12 [Example 37, 2-((S)-1-(4-hydroxybut-2-ynoyl)-4-(7-(8-methylnaphthalen-1-yl)-2-(((S)-1-methylpyrrolidin-2-yl)methoxy)-5,6,7,8-tetrahydropyrido[3,4-d]pyrimidin-4-yl)piperazin-2-yl)acetonitrile] | C (“C”>50% POC)
6 | Cc1cccc2cccc(N3CCc4c(nc(OC[C@@H]5CCCN5C)nc4N4CCN(C(=O)/C=C/CCl)[C@@H](CC#N)C4)C3)c12 [Example 27, 2-((S)-1-((E)-4-chlorobut-2-enoyl)-4-(7-(8-methylnaphthalen-1-yl)-2-(((S)-1-methylpyrrolidin-2-yl)methoxy)-5,6,7,8-tetrahydropyrido[3,4-d]pyrimidin-4-yl)piperazin-2-yl)acetonitrile] | C (“C”>50% POC)
7 | Cc1cccc2cccc(N3CCc4c(nc(OC[C@@H]5CCCN5C)nc4N4CCN(C(=O)/C=C/Cn5cccn5)[C@@H](CC#N)C4)C3)c12 [Example 38, 2-((S)-1-((E)-4-(1H-pyrazol-1-yl)but-2-enoyl)-4-(7-(8-methylnaphthalen-1-yl)-2-(((S)-1-methylpyrrolidin-2-yl)methoxy)-5,6,7,8-tetrahydropyrido[3,4-d]pyrimidin-4-yl)piperazin-2-yl)acetonitrile] | C (“C”>50% POC)
8 | C=C(CO)C(=O)N1CCN(c2nc(OC[C@@H]3CCCN3C)nc3c2CCN(c2cccc(C)c2C)C3)C[C@@H]1CC#N [Example 17, 2-((S)-4-(7-(2,3-dimethylphenyl)-2-(((S)-1-methylpyrrolidin-2-yl)methoxy)-5,6,7,8-tetrahydropyrido[3,4-d]pyrimidin-4-yl)-1-(2-(hydroxymethyl)acryloyl)piperazin-2-yl)acetonitrile] | B (“B”>25% POC−≤50% POC)
9 | Cc1cccc2cccc(N3CCc4c(nc(OC[C@@H]5CCCN5C)nc4N4CCN(C(=O)/C=C/C(F)F)[C@@H](CC#N)C4)C3)c12 [Example 24, 2-((S)-1-((E)-4,4-difluorobut-2-enoyl)-4-(7-(8-methylnaphthalen-1-yl)-2-(((S)-1-methylpyrrolidin-2-yl)methoxy)-5,6,7,8-tetrahydropyrido[3,4-d]pyrimidin-4-yl)piperazin-2-yl)acetonitrile] | C (“C”>50% POC)
10 | Cc1cccc2cccc(N3CCc4c(nc(OC[C@@H]5CCCN5C)nc4N4CCN(C(=O)/C=C/C#N)[C@@H](CC#N)C4)C3)c12 [Example 30, (E)-4-((S)-2-(cyanomethyl)-4-(7-(8-methylnaphthalen-1-yl)-2-(((S)-1-methylpyrrolidin-2-yl)methoxy)-5,6,7,8-tetrahydropyrido[3,4-d]pyrimidin-4-yl)piperazin-1-yl)-4-oxobut-2-enenitrile] | C (“C”>50% POC)
11 | CN1CCC[C@H]1COc1nc2c(c(N3CCN(C(=O)/C=C/CN4CC(F)C4)[C@@H](CC#N)C3)n1)CCN(c1cccc3cccc(Cl)c13)C2 [Example 10, 2-[(2S)-4-[7-(8-chloro-1-naphthyl)-2-[[(2S)-1-methylpyrrolidin-2-yl]methoxy]-6,8-dihydro-5H-pyrido[3,4-d]pyrimidin-4-yl]-1-[(E)-4-(3-fluoroazetidin-1-yl)but-2-enoyl]piperazin-2-yl]acetonitrile] | C (“C”>50% POC)
12 | CN(C/C=C/C(=O)N1CCN(c2nc(OC[C@@H]3CCCN3C)nc3c2CCN(c2cccc4cccc(Cl)c24)C3)C[C@@H]1CC#N)CC(F)(F)F [Example 11, 2-[(2S)-4-[7-(8-chloro-1-naphthyl)-2-[[(2S)-1-methylpyrrolidin-2-yl]methoxy]-6,8-dihydro-5H-pyrido[3,4-d]pyrimidin-4-yl]-1-[(E)-4-[methyl(2,2,2-trifluoroethyl)amino]but-2-enoyl]piperazin-2-yl]acetonitrile] | C (“C”>50% POC)
13 | Cc1cccc2cccc(N3CCc4c(nc(OC[C@@H]5CCCN5C)nc4N4CCN(C(=O)/C=C/CO)[C@@H](CC#N)C4)C3)c12 [Example 39, 2-((S)-1-((E)-4-hydroxybut-2-enoyl)-4-(7-(8-methylnaphthalen-1-yl)-2-(((S)-1-methylpyrrolidin-2-yl)methoxy)-5,6,7,8-tetrahydropyrido[3,4-d]pyrimidin-4-yl)piperazin-2-yl)acetonitrile] | C (“C”>50% POC)
14 | CN1CCC[C@H]1COc1nc2c(c(N3CCN(C(=O)/C=C/CN4CCC(F)C4)[C@@H](CC#N)C3)n1)CCN(c1cccc3cccc(Cl)c13)C2 (stereo partly drawn) [Example 9, 2-[(2S)-4-[7-(8-chloro-1-naphthyl)-2-[[(2S)-1-methylpyrrolidin-2-yl]methoxy]-6,8-dihydro-5H-pyrido[3,4-d]pyrimidin-4-yl]-1-[(E)-4-(3-fluoropyrrolidin-1-yl)but-2-enoyl]piperazin-2-yl]acetonitrile] | C (“C”>50% POC)
15 | CN1CCC[C@H]1COc1nc2c(c(N3CCN(C(=O)/C=C/C(F)(F)F)[C@@H](CC#N)C3)n1)CCN(c1cccc3cccc(Cl)c13)C2 [Example 19, 2-((S)-4-(7-(8-chloronaphthalen-1-yl)-2-(((S)-1-methylpyrrolidin-2-yl)methoxy)-5,6,7,8-tetrahydropyrido[3,4-d]pyrimidin-4-yl)-1-((E)-4,4,4-trifluorobut-2-enoyl)piperazin-2-yl)acetonitrile] | C (“C”>50% POC)
16 | Cc1cccc2cccc(N3CCc4c(nc(OC[C@@H]5CCCN5C)nc4N4CCN(C(=O)/C=C/c5ccccn5)[C@@H](CC#N)C4)C3)c12 [Example 22, 2-((S)-4-(7-(8-methylnaphthalen-1-yl)-2-(((S)-1-methylpyrrolidin-2-yl)methoxy)-5,6,7,8-tetrahydropyrido[3,4-d]pyrimidin-4-yl)-1-((E)-3-(pyridin-2-yl)acryloyl)piperazin-2-yl)acetonitrile] | C (“C”>50% POC)
17 | Cc1cccc2cccc(N3CCc4c(nc(OC[C@@H]5CCCN5C)nc4N4CCN(C(=O)/C=C/c5ccncc5)[C@@H](CC#N)C4)C3)c12 [Example 55, 2-((S)-4-(7-(8-methylnaphthalen-1-yl)-2-(((S)-1-methylpyrrolidin-2-yl)methoxy)-5,6,7,8-tetrahydropyrido[3,4-d]pyrimidin-4-yl)-1-((E)-3-(pyridin-4-yl)acryloyl)piperazin-2-yl)acetonitrile] | C (“C”>50% POC)
18 | Cc1cccc2cccc(N3CCc4c(nc(OC[C@@H]5CCCN5C)nc4N4CCN(C(=O)/C=C/C(F)(F)F)[C@@H](CC#N)C4)C3)c12 [Example 20, 2-((S)-4-(7-(8-methylnaphthalen-1-yl)-2-(((S)-1-methylpyrrolidin-2-yl)methoxy)-5,6,7,8-tetrahydropyrido[3,4-d]pyrimidin-4-yl)-1-((E)-4,4,4-trifluorobut-2-enoyl)piperazin-2-yl)acetonitrile] | C (“C”>50% POC)

Reference: patent publication US20200308170A1, “KRAS G12C INHIBITORS” (Mirati Therapeutics, Inc., priority 2017, published 2020)
